The test system of assay [1] is C57BL/6 mice. Kind of assay: LPS-induced acute lung injury model.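 Note: bronchoalveolar lavage fluid sampled one day after intratracheal LPS challenge, cytokines measured by ELISA in supernatant, lymphocytes counted on Diff-Quick stained cytospin smears.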 Type of assay: in vivo, mouse. The note with it: G3 Dex 10mpk BID; individual animals, Fig 3E-F; listed as Dex.
Experimental: One day before the first experimental day, animals were grouped. All mice were anesthetized with Zoletil–xylazine (50 mpk and 10 mpk, i.p.). At 0 h, mice received LPS at a dose of 50 μl as 50 μg per mouse (groups 2–5, n = 8 per group) or 50 μl saline (group 1, n = 8 per group) by intratracheal administration. […] In the dexamethasone group (group 5), animals were treated with dexamethasone both 2 h before and 4 h after the LPS challenge. Twenty-four hours after the LPS challenge, animals were euthanized, and BALF samples were collected.
(§1) Mice were first anesthetized with Zoletil–xylazine (50 mpk and 10 mpk, i.p.). Next, a 1.5–2-cm longitudinal incision was made on the ventral side of the neck to expose the trachea by blunt dissection, and curved forceps were placed underneath the trachea. A 10–12-cm piece of suture was then threaded underneath the trachea using forceps. The ends of the suture were then pulled cranially to ‘stretch’ the trachea toward the surgeon. A 20-G needle was then used to poke a hole in the trachea as close to the larynx as possible. A 22-G blunt stainless steel needle connected to PE tubing was placed in the hole and inserted approximately 5–8 mm into the trachea. The cannula was secured in the trachea by tying the suture around it with an overhand knot. A 1-ml syringe containing 0.4 ml saline was gently pushed forward and backward three times to recover BALF fluid. BALF was transferred into empty tubes and stored on ice. This process was repeated twice with 0.3 ml saline for a total volume of 1 ml.
(§2) Total cell numbers were counted with a standard hemocytometer by mixing 20 μl BALF with 20 μl trypan blue. Cytospins were prepared by cytocentrifugation using Cytospins at 106g for 5 min, and then smears of BALF cells were stained with Diff-Quick stain. Cell differentiation was performed by counting at least 400 cells using standard hemocytologic criteria to classify them as alveolar macrophages or monocytes, neutrophils, eosinophils or lymphocytes. The rest of the BALF fluid was centrifuged, and supernatants were collected and stored at −80 °C for cytokine, chemokine and total protein analysis.
(§3) From the collected BALF, concentrations of cytokines were measured from mice in groups 2–7 killed on day 28. Mouse BALF cytokines and chemokines were measured using the ELISA Analysis Kit (Sinobest Bio). Mouse BALF soluble collagen was measured using the Soluble Collagen kit (Biocolor). Mouse lung hydroxyproline content was measured using the Hydroxyproline Assay Kit (Njjcbio).
In assay [2] the test system is cyclin-dependent kinase (CDK)2. The note with it: 0.1 μM; cited from earlier work.
Assay [3] deals with C57BL/6 mice. Briefly: Bleomycin-induced lung fibrosis model. It is filed as in vivo, mouse. To be noted: individual animals.
Experimental: (§4) Mice received bleomycin on day 1 at a dose of 0.66 mg per kg (equivalent to 1 U per kg), in a volume of 50 μl by intratracheal administration, or received saline (sham group). On day 7, dosing with the corresponding compounds was started. The vehicle group (group 1) was treated with 0.5% methylcellulose BID. […] On days 5 and 21, lung function measurement was performed. On day 28, all animals were killed, and blood and tissue samples were collected along with BALF.
(§5) Lung function was measured according to the HDB standard protocol. Expiratory time, relaxation time, peak expiratory flow and peak inspiratory flow were collected and used to calculate Penh data.
as §1, §2, §3
Left lung lobes were removed from each mouse and fixed in 10% NBF solution, embedded in paraffin and processed to obtain 4-μm sections for staining with H&E. H&E-stained slides were scanned using an Aperio ScanScope Model CS2 (Leica) at ×200 magnification. Images were then opened in the HALO Plus 5 workstation (version 2.3, Indica Labs) program. Using the pen annotation tool, the whole-lung section was selected as an annotation layer. The area of vessels was defined as background using the exclusion drawing tool. The total inflammation area was quantified by selecting the dark blue inflammation cells using the pen annotation tool manually. The percentage of H&E staining (inflammation area/total area of the lung) in the selected annotation was then calculated using the program.
Masson’s trichrome staining was conducted using a ready-to-use kit (Trichrome Stain (Masson) Kit, HT15, Sigma-Aldrich) as described by the manufacturer.
Lung sections were cut at a thickness of 4 μm, dried in an oven for 1 h and stained with M&T using our standard protocol.
In assay [4] the test system is C57BL/6 mice. Kind of assay: Bleomycin-induced lung fibrosis model, combination with pirfenidone. It is filed as in vivo, mouse. The note with it: PFD 60 BID.
Experimental: as §4, §5
Lung sections were cut at a thickness of 4 μm, dried in an oven for 1 h and stained with M&T using our standard protocol. Briefly, sections were stained with Weigert’s iron hematoxylin working solution for 10 min, stained in Biebrich scarlet–acid fuchsin solution for 10 min, differentiated in phosphomolybdic–phosphotungstic acid solution for 5 min or until the collagen was not red, transferred to aniline blue solution, stained for 1 min and then dedifferentiated in 1% acetic acid solution. Next, sections were dehydrated and coverslipped for subsequent image analysis. For image analysis of collagen deposition, Masson’s trichrome-stained slides were scanned by using Aperio ScanScope Model CS2 (Leica) at ×200 magnification. Images were then opened with HALO. Using the pen tool, the whole left lung section was selected as an annotation layer. The area occupied by blue collagen fibers was measured using the pen tool. The percentage of fibrosis (positive areas) in the selected annotation was then calculated with the program. Fibrosis was expressed as a percentage per lung section.
Sections (4 μm thick) were placed on slides, and, after overnight drying, paraffin was removed with xylene. Next, sections were placed in a graded ethanol series and immersed in distilled water. After heat-induced citrate antigen (pH 6.0) unmasking, sections were immersed in 3% hydrogen peroxide solution for 5 min. […] Next, secondary antibodies conjugated to HRP were added. For image analysis of fibrosis, stained sections were used and scanned with the Aperio CS2 Scanner machine. Images were then opened with HALO. Using the pen tool, the whole left lung section was selected as an annotation layer. The bronchus was excluded in the annotation layer. The area occupied by collagen fibers was measured using the ‘Area Quantification v2.1.3’ module. The percentage of positive areas in the selected annotation was then calculated using the program.
Another assay concerns Sprague Dawley rats. Kind of assay: Bleomycin-induced lung fibrosis model, inhalation administration. It is filed as in vivo, rat. The note with it: Pirfenidone 350 mg/kg; individual animals, Fig 4.
Assay [5] concerns C57BL/6 mice. Kind of assay: Unilateral ureteral obstruction (UUO) kidney fibrosis model.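 Note: mice had the left ureter ligated on day 0, received treatment from day 0 through day 14 and were killed on day 14 for kidney analysis.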 To be noted: SB525334 100 mg/kg QD, individual animals, Fig 5C-D.
Experimental: The surgery took place on two separate days. Mice were divided into two slots based on their body weight before the day of the surgery. On day 0 (day of surgery), UUO surgery was performed after administration of three types of mixed anesthetic agents (medetomidine, midazolam, butorphanol). Mice were shaved at the incision site, the abdomen was cut open, and the left ureter was exteriorized and ligated with 4-0 silk sutures at two points. Finally, the peritoneum and the skin were closed with sutures.
Treatments were applied from day 0 to day 14. And animals were killed on day 14, and blood and tissue samples were collected.
Frozen kidney samples were processed by an alkaline acid hydrolysis method as follows. […] Next, AC buffer (2.2 M acetic acid and 0.48 M citric acid, 400 μl) was added to the samples, followed by centrifugation to collect the supernatant. […] The samples were then mixed with Ehrlich’s solution (400 μl) and heated at 65 °C for 20 min to develop color. After samples were cooled on ice and centrifuged to remove precipitates, the optical density of each supernatant was measured at 560 nm. Hydroxyproline concentrations were calculated from the hydroxyproline standard curve. Kidney hydroxyproline contents were expressed as μg per mg protein, and the amount of protein was determined using the BCA Protein Assay Kit (Thermo Fisher Scientific).
At the end of the UUO study, the left kidney was fixed in Bouin’s solution and embedded in paraffin. Kidney sections were stained using picro-Sirius red solution (Waldeck). To quantify the interstitial fibrosis area, brightfield images in the corticomedullary region were captured using a digital camera (DFC295) at 200-fold magnification, and the positive areas in five fields per section were measured using ImageJ software (National Institute of Health).
Paraffin sections were deparaffinized and hydrophilized with xylene, 100–70% alcohol series and RO water, and then circles were drawn around the kidney sections. […] After washing with PBS, kidney sections were treated with PBS with Tween-20 (PBST), followed by incubation with Block Ace (DS Pharma Biomedical) at room temperature for 10 min. The sections were incubated with the primary antibody (anti-collagen I) at 4 °C overnight. After washing with PBS, kidney sections were treated with PBST, followed by incubation with secondary antibody at room temperature for 30 min. After washing with PBS, kidney sections were fixed with 1% glutaraldehyde solution at room temperature for 1 min. After washing with RO water, kidney sections were treated with PBST and then colored using a chromogenic substrate (Simple Stain DAB, Nichirei Bioscience). After washing with RO water, kidney sections were immersed in an eightfold-diluted hematoxylin solution for 1 min and washed with RO water immediately. […] For scoring of IHC analyses, brightfield images were captured using a digital camera (DFC295) at 200-fold magnification, and the score in one field per section was determined.
[6] abbreviates: G5 Nintedanib 60mpk QD, Fig 3B-C.

Several values for one entry are separate records, joined by “and”; a condition that tells them apart may be missing. Identical values can stand only once.

Experimental for Sprague Dawley rats: On day 1 of the study, bleomycin hydrochloride was administered to 8–9-week-old Sprague Dawley rats at a final concentration of 1.5 mg ml^−1 in sodium chloride solution (dosed volume at 1.0 ml per kg) by intratracheal atomization (once in the morning and once in the afternoon) to build the pulmonary fibrosis model.
A German PARI compression atomizer (PARI TurboBOY) was set at an aerosol flow rate of 9–10 l min^−1. […] The dilution flow of aerosol was set at 0 l min^−1, and the pumping-out flow from the chamber was set at 6 l min^−1. The fluid rate was set at 0.5 ml min^−1 for test article replenishment. Before nebulization, aerosol-generation conditions were validated three times.
And these parameters were recorded in real time during the experiment.
For concentration assessment, a glass fiber filter membrane (φ = 37 mm) was used to measure aerosol concentrations during drug administration from approximately day 8 to day 28. Sampling was taken at 5 min (±1 min) after drug administration from a random exposure port. […] Aerosol particle size parameters were calculated with the system software: median mass aerodynamic diameter (MMAD), geometric standard deviation, fine particle fraction (percentage of fine particles with MMAD < 5 μm), etc.
On day 29 and before euthanasia, animals were anesthetized with chloral hydrate (90 mg ml^−1, 5 ml per kg, i.p.). Necks were cut longitudinally at the middle to isolate trachea, and a catheter was intubated into the trachea toward the tail direction and fixed with a suture thread. The anesthetized animals were placed into the plethysmography chamber, to which the airway was connected. The AniRes2005 animal lung function-analysis system was used to assess parameters including FVC, airway resistance and pulmonary compliance. The ventilator respiration rate was set to 65 beats per minute; the respiration ratio was set to 20:10; the negative pressure controller was set to 30 cm H2O. FVC detection was set to pressure-control mode, while pressure was set to 30 cm H2O. The startup mode was selected to automatically detect at the end of breath, and the ‘Start’ button was clicked to passively inhale and then turned to exhale after reaching the set pressure value. Next, the ‘Stop’ button was clicked to complete an FVC detection. Each animal was evaluated for FVC at least five times. The final result was the mean value after the maximum and minimum data were excluded for analysis.

Take `C[C@@H]1C[C@H]2[C@@H]3CCC4=CC(=O)C=C[C@]4(C)[C@@]3(F)[C@@H](O)C[C@]2(C)[C@@]1(O)C(=O)CO` [Dexamethasone, reference compound]: in the assay on C57BL/6 mice [1], the IL-1β was 90.1547 and 104.645 and 85.96 and 83.2907 and 79.4774 and 99.688 and 85.1973 and 77.1894; the IL-4 was 38.428 and 35.2518 and 35.7056 and 41.1504 and 38.1255 and 36.613 and 38.8817 and 44.3266; the IL-6 is 27.9 and 24.66 and 28.93 and 26.28 and 30.56 and 33.5 and 31.73 and 30.41; the IL-7 is 25.06 and 25.43 and 30.03 and 28.19 and 29.85 and 32.24 and 34.63 and 29.29. In the assay on C57BL/6 mice [1], the Lymphocytes was 11000 and 9300 and 5750 and 9600 and 6400 and 32400 and 4950 and 10750; the TNF-alpha is 362.89 and 452.57 and 397.89 and 371.64 and 437.26 and 448.2 and 351.95 and 301.64.

Take `OC1CCC(Oc2cccc3cnc(Nc4ccc5nc[nH]c5c4)nc23)CC1` (stereo not drawn) [NCB-0846]: in assay [2], the inhibition (usually the drop in the measured response relative to a control, in per cent) is recorded as greater than 80%.

With `COC(=O)c1ccc2c(c1)NC(=O)/C2=C(\Nc1ccc(N(C)C(=O)CN2CCN(C)CC2)cc1)c1ccccc1` [Nintedanib, reference compound], in the assay on C57BL/6 mice [3] (60mpk QD), the “HE staining (inflammation area)” value is 0.45 and 0.15 and 0.63 and 0.09 and 1.34 and 0.26 and 0.72 and 0.83 and 1.48 and 0.9; the “IL-1beta in BALF” value was 168.67 and 169.31 and 175.04 and 171.22 and 152.11 and 187.14 and 147.65 and 164.21; the “IL-6 in BALF” value is 147.17 and 136.31 and 119.43 and 143.55 and 137.52 and 155.01 and 125.46 and 138.12 and 158.63; the “monocytes, cell count in BALF” value was 87000 and 128700 and 121600 and 174600 and 58800 and 161100 and 39800 and 37000 and 99000 and 75600. Further, in the assay on C57BL/6 mice [3] (60mpk QD), the “neutrophils, cell count in BALF” value worked out at 0. Further, in the assay with C57BL/6 mice [3] (setting [6]), the “Lung function (Penh)” value is 0.5478 and 2.603 and 0.6904 and 2.472 and 0.7934 and 0.9276 and 0.6395 and 0.7208 and 1.0675 and 0.6757 and 1.195 and 2.42 and 0.41; the “Masson Trichrome's staining” value was 0.55 and 0.4 and 0.78 and 0.03 and 1.61 and 0.54 and 0.87 and 0.56 and 1.52 and 0.39; the “Modified Ashcroft Score” value is 3.5 and 2.5 and 1.75 and 1.25 and 2.25 and 3.25 and 0.5; the “collagen I” value is 2.73 and 0.02 and 0.37 and 0.05 and 0.16 and 0.9 and 0.94 and 0.03 and 0.07. Besides, in the assay on C57BL/6 mice [3] (setting [6]), the α-SMA is 0.19 and 0.04 and 0.06 and 0.17 and 0.42 and 0.08 and 0.45 and 0.15 and 0.22 and 0.14.

In the case of `Cc1ccc(=O)n(-c2ccccc2)c1` [PFD, reference compound], the “Modified Ashcroft Score” value with C57BL/6 mice [4] is 4.5 and 5.25 and 5 and 4.75 and 5.5 and 4.25. In addition, in the assay with Sprague Dawley rats, the Cdyn was 0.3225 mL/cmH2O and 0.3123 mL/cmH2O and 0.3091 mL/cmH2O and 0.2795 mL/cmH2O and 0.2995 mL/cmH2O and 0.311 mL/cmH2O and 0.2781 mL/cmH2O and 0.3041 mL/cmH2O and 0.3215 mL/cmH2O and 0.2768 mL/cmH2O and 0.3388 mL/cmH2O and 0.3313 mL/cmH2O; the FVC is 11.834 and 11.621 and 10.998 and 9.152 and 10.235 and 10.576 and 10.334 and 10.683 and 12.105 and 9.791 and 11.908 and 11.529; the “HE staining for inflammatory infiltration” value was 7.178 and 19.4033 and 79.9063 and 22.6394 and 11.901 and 21.4024 and 18.4629 and 10.7655 and 14.7132 and 7.539 and 10.0121 and 11.9271; the “MT staining for fibrosis” value was 10.0525 and 23.681 and 70.2292 and 22.9771 and 14.4065 and 16.7608 and 19.0061 and 11.0741 and 14.7041 and 7.51 and 11.2668 and 15.3486. Moreover, in the assay on Sprague Dawley rats, the “Modified Ashcroft Score” value was 2.42 and 3.08 and 3.92 and 2.83 and 3.17 and 2.75 and 2 and 2.08 and 2.33 and 2.5; the RL was 0.1938 cmH2O and 0.2018 cmH2O and 0.2011 cmH2O and 0.2233 cmH2O and 0.2084 cmH2O and 0.2023 cmH2O and 0.2267 cmH2O and 0.2069 cmH2O and 0.196 cmH2O and 0.2278 cmH2O and 0.184 cmH2O and 0.1887 cmH2O.

As to `Cc1cccc(-c2[nH]c(C(C)(C)C)nc2-c2ccc3nccnc3c2)n1` [SB525334, reference compound], the “Collagen Type 1 score” value in the assay on C57BL/6 mice [5] turned out to be 1. Besides, in the assay with C57BL/6 mice [5] (100 mg/kg), the “Fibrosis area (sirius red positive area)” value was 0.79 and 1.13 and 0.97 and 0.36 and 0.56 and 0.41 and 0.76 and 0.48; the Kidney hydroxyproline was 3.88 and 4.04 and 4.13 and 2.51 and 3.1 and 4.54 and 4.91.

(Values after paper PMC11738990, “A small-molecule TNIK inhibitor targets fibrosis in preclinical and clinical models” (Nature Biotechnology, 2024).)
